From US20250340848A1, “METHODS FOR CHEMICAL REPROGRAMMING AND PLURIPOTENT STEM CELLS” (Peking University, priority 2022, published 2025)

Legend:
Format in all cases: cell-based, human
[1] = test system: hADSCs; assay: Example 7 chemical reprogramming of hADSCs, OCT4+ hCiPSC colonies; conditions: for improving reprogramming efficiency: added in stage 1
Method: The stage 1 induction medium contained Knockout DMEM (Gibco) supplemented with 2% B27 supplement (Gibco), 1% Knockout Serum Replacement (KSR; Gibco), 1% GlutaMAX (Gibco), 1% nonessential amino acids (NEAA; Gibco), 1% penicillin-streptomycin, 50 μg ml-1 Vc2p, 5 mM LiCl, 1 mM nicotinamide, 40 ng ml^−1 BMP4 and the small molecules CHIR-99021 (5 μM), 616452 (10 μM), TTNPB (2 μM), SAG (0.5 μM), EPZ-5676 (2 μM), DZNep (0.05 μM), ruxolitinib (1 μM), VTP50469 (0.5 μM), AKT kinase inhibitor (1 μM), JNK-IN-8 (0.2 μM), SETD2-IN-1 (0.2 μM), AM095 free acid (0.5 μM), WM-8014 (1 μM) and A-485 (0.5 μM).
Stage 2 induction medium contained Knockout DMEM supplemented with 2% B27 supplement, 1% GlutaMAX, 1% NEAA, 1% penicillin-streptomycin, 50 μg ml^−1 Vc2p, 200 ng ml^−1 bFGF and the small molecules CHIR-99021 (5 μM), 616452 (10 μM), TTNPB (2 μM), SAG (0.5 μM), JNK-IN-8 (0.5 μM), EPZ-5676 (2 μM), DZNep (0.2 μM), ruxolitinib (1 μM), BIRB 796 (2 μM), SGC-CBP30 (2 μM), VTP50469 (0.5 μM), 5-Iodotubercidin (0.5 μM), AKT kinase inhibitor (0.2 μM), CX-4945 (1 μM), RA (5 μM) and GSK-3685032 (0.02 μM).
Stage 3 induction medium contained Knockout DMEM supplemented with 2% B27 supplement, 1% GlutaMAX, 1% NEAA, 1% penicillin-streptomycin, 5% KSR, 50 μg ml^−1 Vc2p, 20 ng ml^−1 recombinant human heregulinβ-1 (HRG) and the small molecules CHIR-99021 (1 μM), Y-27632 (10 μM), PD0325901 (1 μM) and SB-590885 (0.5 μM). Knockout DMEM containing supplements and the small molecules mentioned above served as the basal medium for stage 3. For the first 2-3 days of stage 3 induction, valproic acid sodium salt (VPA; 200 μM), tranylcypromine (10 μM), DZNep (0.2 μM), EPZ-5676 (2 μM) and PY-60 (10 μM) were added to the basal medium. For the next 2-3 days, VPA (200 μM) and PY-60 (2 μM) were added to the basal medium. Information on the small molecules, cytokines and other reagents is available in Supplementary Table 4.
Hypoxia with 5% O2 was used for stage 1 induction. After stage 1 induction, the culture was changed to 21% O2.
(1) hADSCs and hASFs were seeded in high-glucose DMEM supplemented with 15% FBS at a density of 1.2-1.4×10^4 cells per well in 12-well plates or 0.6-0.7×10^4 cells per well in 24-well plates. The medium was changed to stage 1 induction medium the next day.
(2) For stage 1 induction, single-layer epithelium-like cells emerged on day 4. When the epithelium-like cells reached ˜100% confluence (usually after 6-8 days of stage 1 induction for hADSCs and 8-10 days for hASFs), the medium was changed to stage 2 induction medium. For the induction of hADSCs in 24-well plates, 1 ml of stage 1 medium was added to each well (2 ml per well for 12-well plates), and there was no need to change the medium during stage 1. For the induction of hASFs, stage 1 medium was replaced with fresh medium on day 6. […]

[2] = test system: hADSCs; assay: Stage 1 conversion of hADSCs to epithelial-like cells, morphology (FIG. 3); conditions: added in stage 1, small-molecule library screen
Method: (§1) In one experiment, when converting hCiPSCs from somatic cell (e.g., hADSCs), hypoxia with 5% O2 was used in stage 1 conversion. After stage 1 conversion, cells were incubated with 21% O2. The induction medium was changed every 3-4 days. hADSCs were seeded at a density of 1×10^4 cells per well of a 12-well plate in 15% FBS-DMEM medium and would be changed into stage 1 conversion medium the next day. For stage 1 conversion, single layer epithelial-like cells induced from hADSCs would emerge at day 4-6 and approach 100% confluence at day 8-12. Then the medium was changed into stage 2 conversion medium. For stage 2 conversion, multi-layered cell colonies appeared after 8-12 days of treatment of the cells with the conversion medium, and these cell colonies would continually grow increasingly large. The medium was changed into stage 3 conversion medium after 16 days of treatment with the stage 2 conversion medium. […]
In stage 1, the conversion medium was changed every 3-4 days. hADSCs were seeded at a density of 1×10^4 cells per well of a 12-well plate in 15% FBS-DMEM medium and would be changed into stage I induction medium the next day. […] Conversion into epithelial-like cells can be measured by upregulation of and epithelial cell-related genes. […]

[3] = test system: hADSCs; assay: Three-stage conversion of hADSCs into hCiPSCs (methods of EXAMPLE 1), numbers of hCiPSC colonies
From the text: FIG. 1 illustrates a schematic of an exemplary method for converting human somatic cells into pluripotent stem cells. The method has 3 stages. During any of the 3 stages, any cell can proliferate and give rise to progeny cells. In stage 1, a first population of cells comprising somatic cells are contacted with a first composition for about 4-12 days. The first population of cells can comprise somatic cells (e.g., fibroblasts or primary human adult adipose derived mesenchymal stromal cells (hADSCs)). During and/or subsequent to contacting the first composition, at least a subset of the cells of the first population of cells or the progenies thereof are converted into a second population of cells. The second population of cells can comprise epithelial-like cells. In stage 2, the second population of cells or the progenies thereof are then contacted with a second composition for about 4-16 days. During and/or subsequent to contacting the second composition, at least a subset of the cells of the second population of cells or the progenies thereof are converted into a third population of cells. The third population of cells can comprise intermediate plastic state cells. In stage 3, the third population of cells or the progenies thereof are contacted with a third composition for about 6-12 days. During and/or subsequent to contacting the third composition, at least a subset of the cells of the third population of cells or the progenies thereof are converted into a fourth population of cells.
FIG. 2 illustrates a schematic of an exemplary method for converting human fibroblasts into pluripotent stem cells. The method can comprise 3 stages. During any of the 3 stages, any cell can proliferate and give rise to progeny cells. In stage 1, a first population of cells comprising fibroblasts is contacted with a first composition for about 8-10 days. During and/or subsequent to contacting the first composition, at least a subset of the cells of the first population of cells or the progenies thereof are converted into a second population of cells. The second population of cells can comprise epithelial-like cells. The epithelial-like cells express an increased amount of LIN28A, relative to the first population of cells or their progenies. In stage 2, the second population of cells or the progenies thereof are then contacted with a second composition for about 12-16 days. During and/or subsequent to contacting the second composition, at least a subset of the cells of the second population of cells or the progenies thereof are converted into a third population of cells. The third population of cells can comprise intermediate plastic state cells. The intermediate plastic state cells express both SALL4 and LIN28A. In stage 3, the third population of cells or the progenies thereof are contacted with a third composition for about 8-10 days. During and/or subsequent to contacting the third composition, at least a subset of the cells of the third population of cells or the progenies thereof are converted into a fourth population of cells. […] The second conversion medium can then be removed from the cells. […] The third stage 3 medium may allow the pluripotent stem cells or the progenies thereof to proliferate.
as §1, with “medium.” for “medium. For stage 2 conversion, multi-layered cell colonies appeared after 8-12 days of treatment of the cells with the conversion medium, and these cell colonies would continually grow increasingly large. The medium was changed into stage 3 conversion medium after 16 days of treatment with the stage 2 conversion medium.”

In the case of `CNC(=O)Nc1ccc2c(c1)CC[C@@]21OC(=O)N(CC(=O)N(Cc2ccc(F)cc2)[C@@H](C)C(F)(F)F)C1=O` [A485], the “screening of chemical libraries targeting histone modifications during chemical reprogramming stage 1” value ([1]; 0.5 μM screening batch, FIG. 39) is reported as “top candidate” and the improving reprogramming efficiency [1] is reported as “most effective in improving reprogramming efficiency”.

`CCn1c(-c2nonc2N)nc2c(C#CCO)ncc(OCCCN)c21` [AKT Kinase Inhibitor, 3-[2-(4-amino-1,2,5-oxadiazol-3-yl)-7-(3-aminopropoxy)-1-ethylimidazo[4,5-c]pyridin-4-yl]prop-2-yn-1-ol] was tested, and the “emergence of epithelial-like colonies” value [2] was “further promoted the emergence epithelial-like colonies”, the reprogramming efficiency ([3]; AKTi and CX4945 included in the stage 2 conversion medium (Base), FIG. 18) was “significantly improved the reprogramming efficiency” and the “numbers of converted hCiPSCs” value ([3]; factor removed from the stage 1 conversion medium, FIG. 4) was “minimal numbers of converted hCiPSCs”.

`CC(C)N(C(=O)c1cc(F)ccc1Oc1cncnc1N1CC2(CCN(CC3CCC(NS(C)(=O)=O)CC3)CC2)C1)C(C)C` (centres unmarked) [VTP50469] was tested, and the “emergence of epithelial-like colonies” value [2] was “further promoted the emergence epithelial-like colonies”, the “increase of the numbers of converted hCiPSCs” value ([3]; added to the stage 2 conversion medium, relative to medium without it, FIGS. 7A-7B) was “about 7 fold” and the “numbers of converted hCiPSCs” value ([3]; factor removed from the stage 2 conversion medium, FIG. 17) was “reduced the numbers of converted hCiPSCs”. The “numbers of converted hCiPSCs” value ([3]; various combinations supplemented to stage 1 conversion medium comprising CHIR99021, 616452, TTNPB and AKT Kinase Inhibitor, FIG. 5) was “significantly increase the numbers of converted hCiPSCs”.

For `Cc1cc(-c2ccccc2)cc(C(=O)NNS(=O)(=O)c2ccccc2)c1F` [WM8014], the “screening of chemical libraries targeting histone modifications during chemical reprogramming stage 1” value ([1]; 1 μM screening batch, FIG. 40) was “top candidate” and the improving reprogramming efficiency [1] was “most effective in improving reprogramming efficiency”.
